Experimental data taken from ChEMBL document CHEMBL1201862, “PubChem BioAssay data set” (2004).
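Step 1: Grow cells in 96-well plates. Step 2: Expose to compound for 48 hours at 5 concentrations. Step 3: Interpolate endpoints linearly; if unreached, use highest concentration. GI50 is the concentration that inhibits growth by half.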 Active and inactive are the calls of the source. No stated cut-off is given here; in the data, active = GI50 up to about 1.1 µM and inactive = higher.

Columns and labels:
Assay in all cases: growth of human tumour cells (NCI), 48 h
786-0 = tested on: 786-0
A498 = tested on: A498
ACHN = tested on: ACHN
BT-549 = tested on: BT-549
EKVX = tested on: EKVX
HCC 2998 = tested on: HCC 2998
HT-29 = tested on: HT-29
MDA-MB-435 = tested on: MDA-MB-435
NCI-H460 = tested on: NCI-H460
NCI-H522 = tested on: NCI-H522
OVCAR-4 = tested on: OVCAR-4
SF-268 = tested on: SF-268
SF-295 = tested on: SF-295
SK-MEL-2 = tested on: SK-MEL-2
SNB-19 = tested on: SNB-19
SNB-75 = tested on: SNB-75
SW-620 = tested on: SW-620
UACC-257 = tested on: UACC-257
UACC-62 = tested on: UACC-62
K562 = tested on: K562

| Structure (SMILES) | GI50 (786-0) | GI50 (A498) | GI50 (ACHN) | GI50 (BT-549) | GI50 (EKVX) | GI50 (HCC 2998) | GI50 (HT-29) | GI50 (MDA-MB-435) | GI50 (NCI-H460) | GI50 (NCI-H522) | GI50 (OVCAR-4) | GI50 (SF-268) | GI50 (SF-295) | GI50 (SK-MEL-2) | GI50 (SNB-19) | GI50 (SNB-75) | GI50 (SW-620) | GI50 (UACC-257) | GI50 (UACC-62) | GI50 (K562) |
| --- | --- | --- | --- | --- | --- | --- | --- | --- | --- | --- | --- | --- | --- | --- | --- | --- | --- | --- | --- | --- |
| CCCC(=O)OC1C(C(O)CO)OC2OC(C)(C)OC21 (centres undefined) | > 100 µM (inactive) | > 100 µM (inactive) | > 100 µM (inactive) | > 100 µM (inactive) | > 100 µM (inactive) | > 100 µM (inactive) | > 100 µM (inactive) | > 100 µM (inactive) | > 100 µM (inactive) | > 100 µM (inactive) | > 100 µM (inactive) | > 100 µM (inactive) | > 100 µM (inactive) | > 100 µM (inactive) | > 100 µM (inactive) | > 100 µM (inactive) | > 100 µM (inactive) | > 100 µM (inactive) | > 100 µM (inactive) | – |
| C(/Cc1ccc2c(c1)OCO2)=N\N=C1NCCN1 | > 100 µM (inactive) | 18.8 µM (inactive) | > 100 µM (inactive) | 91.2 µM (inactive) | 61.2 µM (inactive) | 92.3 µM (inactive) | 57.9 µM (inactive) | > 100 µM (inactive) | 47.8 µM (inactive) | > 100 µM (inactive) | > 100 µM (inactive) | > 100 µM (inactive) | 42.4 µM (inactive) | > 100 µM (inactive) | > 100 µM (inactive) | 33.7 µM (inactive) | > 100 µM (inactive) | > 100 µM (inactive) | > 100 µM (inactive) | 43.2 µM (inactive) |
| O=C(/C=C1\C[C@H]2C=Nc3ccccc3C(=O)N2C1)NCCCCNC(=O)/C=C1\C[C@H]2C=Nc3ccccc3C(=O)N2C1 | 1.75 µM (inactive) | 18.7 µM (inactive) | 3.61 µM (inactive) | 12.9 µM (inactive) | 16.7 µM (inactive) | 18 µM (inactive) | 14.2 µM (inactive) | 7.4 µM (inactive) | 17.7 µM (inactive) | 1.4 µM (inactive) | 8.99 µM (inactive) | 9.95 µM (inactive) | 19.5 µM (inactive) | 15.2 µM (inactive) | 16.6 µM (inactive) | 16.3 µM (inactive) | 2.55 µM (inactive) | 10.3 µM (inactive) | 15.3 µM (inactive) | 3.11 µM (inactive) |
| CCCCCCc1cc2cc(-c3cn4ccccc4n3)c(=O)oc2cc1O | 2.12 µM (inactive) | 20.1 µM (inactive) | 18 µM (inactive) | 10.1 µM (inactive) | 18.4 µM (inactive) | 18.4 µM (inactive) | > 55.8 µM (inactive) | 5.24 µM (inactive) | 15 µM (inactive) | 5.37 µM (inactive) | 4.66 µM (inactive) | 2.32 µM (inactive) | 15.1 µM (inactive) | 13.6 µM (inactive) | 13.2 µM (inactive) | 3.14 µM (inactive) | 9.93 µM (inactive) | 18.1 µM (inactive) | 8.17 µM (inactive) | 4.61 µM (inactive) |
| CC(=O)OCC1OC(O[C@@H]2c3c(O)c4c(c(O)c3C3=C(NN(c5ccc([N+](=O)[O-])cc5[N+](=O)[O-])[Se]3=O)[C@@]2(C)O)C(=O)c2ccccc2C4=O)C(OC(C)=O)C(OC(C)=O)C1OC(C)=O (some centres undefined) | 0.147 µM (active) | 0.288 µM (active) | 0.222 µM (active) | 0.489 µM (active) | 0.23 µM (active) | 0.228 µM (active) | 0.239 µM (active) | 0.145 µM (active) | 0.192 µM (active) | 0.124 µM (active) | 0.201 µM (active) | 0.139 µM (active) | 0.21 µM (active) | 0.212 µM (active) | 0.323 µM (active) | 0.394 µM (active) | 0.101 µM (active) | 0.376 µM (active) | 0.27 µM (active) | 0.118 µM (active) |
| [O-]c1c2cc(-[n+]3c(-c4ccccc4)cc(-c4ccccc4)cc3-c3ccccc3)cc1CO[C@@H](c1ccccc1)[C@H](c1ccccc1)OCc1cccc(n1)CO[C@@H](c1ccccc1)[C@H](c1ccccc1)OC2 | 0.0764 µM (active) | 0.867 µM (active) | 0.304 µM (active) | 0.057 µM (active) | 0.0838 µM (active) | 0.453 µM (active) | 0.0318 µM (active) | 0.0501 µM (active) | 0.056 µM (active) | 0.0353 µM (active) | 0.09 µM (active) | 0.0689 µM (active) | 0.102 µM (active) | 0.0569 µM (active) | 0.0514 µM (active) | 0.0682 µM (active) | 0.0568 µM (active) | 0.0803 µM (active) | 0.0931 µM (active) | 0.0293 µM (active) |
